Among the test systems are HCT-15; LOX IMVI; RXF 393; U-251; OVCAR-5; CCRF-CEM; A549; K562; UACC-62; MCF7; NCI-H460; DU-145; CAKI-1; M14; MDA-MB-435; HOP-62; SF-268; RPMI-8226; SF-539.
What all share (test): NCI-60 cell line screen, 48 h

SMILES strings stand for the structures.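 The compound was tested at five concentrations on cells cultured in 96-well plates, with a 48-hour exposure period. GI50: concentration for 50% inhibition of growth.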 The source made the active and inactive calls. Cut-off read from the data, not from the text of the source: active = GI50 up to about 1.1 µM and inactive = higher.

As to `O=C1Nc2ccc(S(=O)(=O)O)cc2/C1=C1/Nc2ccc(Br)cc2C1=O`, the GI50 in the assay on HCT-15 was over 100 µM; in the assay on LOX IMVI, > 100 µM (inactive); in the assay on RXF 393, > 100 µM (inactive); with U-251, > 100 µM (inactive); with OVCAR-5, > 100 µM (inactive); with CCRF-CEM, > 100 µM (inactive). For the same compound, the GI50 was > 100 µM (inactive) with A549; > 100 µM (inactive) with K562; > 100 µM (inactive) in the assay on UACC-62; 72.8 µM (inactive) in the assay with MCF7; > 100 µM (inactive) in the assay with NCI-H460; > 100 µM (inactive) in the assay on DU-145. Besides, the GI50 in the assay on CAKI-1, in the assay on M14, in the assay with MDA-MB-435, with HOP-62, with SF-268 and in the assay with RPMI-8226 was > 100 µM (inactive) each time.
With `Cc1ccc(O)c(-c2cc(-c3cccc(Br)c3)c(C#N)c(N)n2)c1`, the GI50 in the assay with HCT-15 is 12.9 µM; in the assay on LOX IMVI, 16.3 µM (inactive); in the assay on RXF 393, 20.8 µM (inactive); with U-251 it was 17.3 µM (inactive); with OVCAR-5, 41.5 µM (inactive); with A549, 27.6 µM (inactive). Besides, the GI50 was 21.8 µM (inactive) with K562; 16.4 µM (inactive) in the assay with UACC-62; 16.3 µM (inactive) in the assay with MCF7; 19.6 µM (inactive) in the assay on NCI-H460; 29.6 µM (inactive) in the assay on DU-145; 21.8 µM (inactive) in the assay on CAKI-1. Besides, the GI50 in the assay with M14 was 31.9 µM (inactive); in the assay on MDA-MB-435, 16.3 µM (inactive); with HOP-62, 34.6 µM (inactive); in the assay on SF-268 it was 26.4 µM (inactive); in the assay on SF-539, 29.1 µM (inactive); in the assay on RPMI-8226 it was 11.5 µM (inactive).
With `CCOC(=O)C1=c2[nH]c3cccc4cccc(c43)n2C(=O)CC1`, the GI50 in the assay on HCT-15 is 39.3 µM; in the assay with LOX IMVI, 25.4 µM (inactive); in the assay with RXF 393, > 100 µM (inactive); in the assay with U-251 it was > 100 µM (inactive); in the assay on OVCAR-5 it was > 100 µM (inactive); in the assay with CCRF-CEM it was 24.3 µM (inactive). Besides, the GI50 in the assay on A549 is > 100 µM (inactive); with K562, > 100 µM (inactive); with UACC-62, > 100 µM (inactive); in the assay on MCF7 it was 36.2 µM (inactive); in the assay on NCI-H460, > 100 µM (inactive); with DU-145, 51.6 µM (inactive). Further, the GI50 with CAKI-1, with M14, in the assay on MDA-MB-435, in the assay with HOP-62 and with RPMI-8226 was > 100 µM (inactive) in each case.
Take `COc1ccc(N2C(=O)C3c4[nH]c5ccc(OC)cc5c4C4CCC(C(C)C)CC4C3C2=O)cc1` (stereo unspecified): the GI50 with HCT-15 was over 100 µM; in the assay with LOX IMVI, > 100 µM (inactive); in the assay on RXF 393, 31 µM (inactive); in the assay with U-251, 26.4 µM (inactive); in the assay with OVCAR-5, > 100 µM (inactive); with CCRF-CEM it was 7.73 µM (inactive). The GI50 in the assay with A549 is > 72.4 µM (inactive); with K562, 18.3 µM (inactive); in the assay on UACC-62, > 31.6 µM (inactive); in the assay on MCF7, > 100 µM (inactive); in the assay with NCI-H460 it was 27.5 µM (inactive); with DU-145 it was > 100 µM (inactive). For the same compound, the GI50 in the assay on CAKI-1 was > 100 µM (inactive); with M14 it was 34.1 µM (inactive); with MDA-MB-435 it was > 100 µM (inactive); in the assay on HOP-62, 12 µM (inactive); in the assay with SF-268, 19.5 µM (inactive); with RPMI-8226, > 100 µM (inactive).

(Values after ChEMBL document CHEMBL1201862, “PubChem BioAssay data set” (2004).)
